Results taken from US11415579B2, “Assay for measuring a rate of reaction between a target and a ligand candidate” (Imperial College Innovations Ltd., priority 2016, dated 2022).

What was measured:
[1] = molecular target: T1, human cyclin-dependent kinase 2 (Cdk2) (Homo sapiens, UniProt P24941); experiment: Kinetic thiol consumption assay with wild type Cdk2 (C177); assay type: binding; parameters: key to Rate enhancement, Cdk2 WT: k(Cdk2) divided by k(model thiol); Rate constant with Cdk2 (k(Cdk2)): unit not given here; settings: for Rate constant with Cdk2 (k(Cdk2)): 500 μM ligand, 5 μM thiol, phosphate buffer pH 8; for Rate enhancement, Cdk2 WT: no additional mutations; for Rate constant with Cdk2 WT: Protein: Cdk2, cysteine position WT, in h^-1; for k(Cdk2)/k(Cdk2_mut) rate enhancement: model thiol Cdk2[C177A, F80C, K278C]; for k(Cdk2)/k(GSH) rate enhancement: model thiol glutathione
T1 construct: poly-histidine; made in house; host or cells: E. coli
Method in brief: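 Thiol 5 μM (Cdk2 or model thiol), degassed phosphate buffer pH 8, TCEP beads 2% v/v. Plates incubated 1 h RT, ex/em 380/470 nm. First-order decay fit → rate constant; ratio Cdk2/model thiol = rate enhancement.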

Cdk2(S181C) (C177A) = molecular target: T2, Cdk2(S181C) (C177A) (Homo sapiens, UniProt P24941, C177A/S181C); experiment: Kinetic thiol consumption assay with Cdk2 mutant S181C; assay type: binding; parameters: key to Rate enhancement, Cdk2 S181C: rate constant with Cdk2 ÷ rate constant with model thiol (fold); settings: additional mutation C177A; for Rate constant with Cdk2 S181C: Protein: Cdk2, cysteine position S181C, in h^-1
T2 construct: poly-histidine; made in house; host or cells: E. coli
Method in brief: (§1)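 Read-out is fluorescence at 380/470 nm, taken after 1 h at room temperature and normalized to a DMSO/thiol-only control over time. Thiol (5 μM Cdk2 mutant or model thiol) was in degassed pH 8 phosphate buffer with 2% v/v TCEP beads. Acrylamide rate constants for Cdk2 were divided by those with model thiol.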

Cdk2[C177A, F80C, K278C] = molecular target: T3, Cdk2[C177A, F80C, K278C] (Homo sapiens, UniProt P24941, C177A/F80C/K278C); experiment: Kinetic thiol consumption assay with mutant Cdk2 as model thiol; assay type: binding; parameters: unit not given here; settings: 500 μM ligand, 5 μM thiol, phosphate buffer pH 8
T3 construct: poly-histidine; made in house; host or cells: E. coli
Method in brief: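 First-order rate constants were derived by exponential-decay fitting of DMSO/thiol-normalized fluorescence (380/470 nm) over time at room temperature. Thiol was 5 μM E. coli-expressed His-tagged Cdk2 mutant C177A/F80C/K278C in degassed pH 8 phosphate buffer containing 2% v/v TCEP beads.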

[2] = Kinetic thiol consumption assay with model thiol glutathione; assay type: physicochemical; parameters: Rate constant with glutathione (k(GSH)): unit not given here; settings: for Rate constant with glutathione (k(GSH)): 500 μM ligand, 5 μM thiol, phosphate buffer pH 8; for Rate constant with Glutathione: Protein: Glutathione, cysteine position NA, in h-1
Method in brief: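 Rate constants for acrylamide reaction with 5 μM glutathione come from first-order exponential fits of normalized fluorescence decay (ex 380, em 470 nm). Reactions run in degassed phosphate buffer at pH 8 containing TCEP beads, room temperature.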

Cdk2(T182C) (C177A) = molecular target: T4, Cdk2(T182C) (C177A) (Homo sapiens, UniProt P24941, C177A/T182C); experiment: Kinetic thiol consumption assay with Cdk2 mutant T182C; assay type: binding; parameters: key to Rate enhancement, Cdk2 T182C: rate constant with Cdk2 ÷ rate constant with model thiol (fold); settings: additional mutation C177A; for Rate constant with Cdk2 T182C: Protein: Cdk2, cysteine position T182C, in h^-1
T4 construct: poly-histidine; made in house; host or cells: E. coli
Method in brief: as §1

Cdk2(R122C) (C177A) = molecular target: T5, Cdk2(R122C) (C177A) (Homo sapiens, UniProt P24941, C177A/R122C); experiment: Kinetic thiol consumption assay with Cdk2 mutant R122C; assay type: binding; parameters: key to Rate enhancement, Cdk2 R122C: rate constant with Cdk2 ÷ rate constant with model thiol (fold); settings: additional mutation C177A; for Rate constant with Cdk2 R122C: Protein: Cdk2, cysteine position R122C, in h-1
T5 construct: poly-histidine; made in house; host or cells: E. coli
Method in brief: as §1

Cdk2(H71C) (C177A) = molecular target: T6, Cdk2(H71C) (C177A) (Homo sapiens, UniProt P24941, C177A/H71C); experiment: Kinetic thiol consumption assay with Cdk2 mutant H71C; assay type: binding; parameters: key to Rate enhancement, Cdk2 H71C: rate constant with Cdk2 ÷ rate constant with model thiol (fold); settings: additional mutation C177A; for Rate constant with Cdk2 H71C: Protein: Cdk2, cysteine position H71C, in h^-1
T6 construct: poly-histidine; made in house; host or cells: E. coli
Method in brief: as §1

Cdk2(C177A, F80C) = molecular target: T7, Cdk2(C177A, F80C) (Homo sapiens, UniProt P24941, C177A/F80C); experiment: Kinetic thiol consumption assay with Cdk2 mutant F80C, incl. kobs versus concentration (Kd, k2); assay type: binding; parameters: key to Rate enhancement, Cdk2 F80C: Cdk2 rate constant divided by model-thiol rate constant; settings: additional mutation C177A; for Rate constant with Cdk2 F80C: Protein: Cdk2, cysteine position F80C, in h^-1
T7 construct: poly-histidine; made in house; host or cells: E. coli
Method in brief: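 His-tagged Cdk2(C177A/F80C) from E. coli or model thiol, 5 μM in degassed phosphate buffer pH 8 with TCEP beads, reacted with acrylamide ligands; fluorescence (ex/em 380/470 nm) normalized to DMSO control and fitted to first-order decay for kobs. Kd and k2 obtained from hyperbolic fit of kobs versus ligand concentration.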

Cdk2(S276C) (C177A) = molecular target: T8, Cdk2(S276C) (C177A) (Homo sapiens, UniProt P24941, C177A/S276C); experiment: Kinetic thiol consumption assay with Cdk2 mutant S276C; assay type: binding; parameters: key to Rate enhancement, Cdk2 S276C: rate constant with Cdk2 ÷ rate constant with model thiol (fold); settings: additional mutation C177A; for Rate constant with Cdk2 S276C: Protein: Cdk2, cysteine position S276C, in h^-1
T8 construct: poly-histidine; made in house; host or cells: E. coli
Method in brief: as §1

Cdk2(N272C) (C177A) = molecular target: T9, Cdk2(N272C) (C177A) (Homo sapiens, UniProt P24941, C177A/N272C); experiment: Kinetic thiol consumption assay with Cdk2 mutant N272C; assay type: binding; parameters: key to Rate enhancement, Cdk2 N272: rate constant with Cdk2 ÷ rate constant with model thiol (fold); settings: for Rate enhancement, Cdk2 N272: Cdk2 N272, additional mutation C177A; for Rate constant with Cdk2 N272C: Protein: Cdk2, cysteine position N272C, additional mutation C177A, in h^-1
T9 construct: poly-histidine; made in house; host or cells: E. coli
Method in brief: as §1

Compound: C=CC(=O)N1CCCC1c1cnc2ccccc2c1 (centres unmarked) [EL-1064]
- Rate constant with Cdk2 (k(Cdk2)) [1]: 0.00589
- Rate enhancement, Cdk2 WT [1]: 0.4929
- Rate constant with Cdk2 WT [1]: 0.00589
- k(Cdk2)/k(Cdk2_mut) rate enhancement [1]: 0.7691
- k(Cdk2)/k(GSH) rate enhancement [1]: 0.489
- Rate enhancement, Cdk2 S181C (Cdk2(S181C) (C177A)): 1.469
- Rate constant with Cdk2 S181C (Cdk2(S181C) (C177A)): 0.01756
- Rate constant with Cdk2[C177A, F80C, K278C] (k(Cdk2_mut)) (Cdk2[C177A, F80C, K278C]): 0.00766
- Rate constant with glutathione (k(GSH)) [2]: 0.01205
- Rate constant with Glutathione [2]: 0.01195
- Rate enhancement, Cdk2 T182C (Cdk2(T182C) (C177A)): 1.7
- Rate constant with Cdk2 T182C (Cdk2(T182C) (C177A)): 0.02031
- Rate enhancement, Cdk2 R122C (Cdk2(R122C) (C177A)): 0.5786
- Rate constant with Cdk2 R122C (Cdk2(R122C) (C177A)): 0.006914
- Rate enhancement, Cdk2 H71C (Cdk2(H71C) (C177A)): 0.8653
- Rate constant with Cdk2 H71C (Cdk2(H71C) (C177A)): 0.01034
- Rate enhancement, Cdk2 F80C (Cdk2(C177A, F80C)): 1.645
- Rate constant with Cdk2 F80C (Cdk2(C177A, F80C)): 0.01966
- Rate enhancement, Cdk2 S276C (Cdk2(S276C) (C177A)): 1.074
- Rate constant with Cdk2 S276C (Cdk2(S276C) (C177A)): 0.01284
- Rate enhancement, Cdk2 N272 (Cdk2(N272C) (C177A)): 1.056
- Rate constant with Cdk2 N272C (Cdk2(N272C) (C177A)): 0.01262

Compound: C=CC(=O)N(CC(=O)NC1CC1)C1CC1 [CA-031]
- Rate constant with Cdk2 (k(Cdk2)) [1]: 0.00688
- Rate enhancement, Cdk2 WT [1]: 0.1766
- Rate constant with Cdk2 WT [1]: 0.003072
- k(Cdk2)/k(Cdk2_mut) rate enhancement [1]: 1.479
- k(Cdk2)/k(GSH) rate enhancement [1]: 0.4081
- Rate enhancement, Cdk2 S181C (Cdk2(S181C) (C177A)): 0.5614
- Rate constant with Cdk2 S181C (Cdk2(S181C) (C177A)): 0.009769
- Rate constant with Cdk2[C177A, F80C, K278C] (k(Cdk2_mut)) (Cdk2[C177A, F80C, K278C]): 0.00466
- Rate constant with glutathione (k(GSH)) [2]: 0.01687
- Rate constant with Glutathione [2]: 0.0174
- Rate enhancement, Cdk2 T182C (Cdk2(T182C) (C177A)): 1.063
- Rate constant with Cdk2 T182C (Cdk2(T182C) (C177A)): 0.01849
- Rate enhancement, Cdk2 R122C (Cdk2(R122C) (C177A)): 0.221
- Rate constant with Cdk2 R122C (Cdk2(R122C) (C177A)): 0.003846
- Rate enhancement, Cdk2 H71C (Cdk2(H71C) (C177A)): 0
- Rate enhancement, Cdk2 F80C (Cdk2(C177A, F80C)): 0.02876
- Rate constant with Cdk2 F80C (Cdk2(C177A, F80C)): 0.0005005
- Rate enhancement, Cdk2 S276C (Cdk2(S276C) (C177A)): 0.5294
- Rate constant with Cdk2 S276C (Cdk2(S276C) (C177A)): 0.009212
- Rate enhancement, Cdk2 N272 (Cdk2(N272C) (C177A)): 1.169
- Rate constant with Cdk2 N272C (Cdk2(N272C) (C177A)): 0.02034

Compound: C=CC(=O)N1CCN(c2cccc3cccnc23)CC1 [EL-1156]
- Rate constant with Cdk2 (k(Cdk2)) [1]: 0.01873
- Rate enhancement, Cdk2 WT [1]: 1.065
- Rate constant with Cdk2 WT [1]: 0.01873
- k(Cdk2)/k(Cdk2_mut) rate enhancement [1]: 0.8683
- k(Cdk2)/k(GSH) rate enhancement [1]: 1.062
- Rate enhancement, Cdk2 S181C (Cdk2(S181C) (C177A)): 1
- Rate constant with Cdk2 S181C (Cdk2(S181C) (C177A)): 0.01759
- Rate constant with Cdk2[C177A, F80C, K278C] (k(Cdk2_mut)) (Cdk2[C177A, F80C, K278C]): 0.02157
- Rate constant with glutathione (k(GSH)) [2]: 0.01763
- Rate constant with Glutathione [2]: 0.01759
- Rate enhancement, Cdk2 T182C (Cdk2(T182C) (C177A)): 4.097
- Rate constant with Cdk2 T182C (Cdk2(T182C) (C177A)): 0.07206
- Rate enhancement, Cdk2 R122C (Cdk2(R122C) (C177A)): 0.6879
- Rate constant with Cdk2 R122C (Cdk2(R122C) (C177A)): 0.0121
- Rate enhancement, Cdk2 H71C (Cdk2(H71C) (C177A)): 0.3885
- Rate constant with Cdk2 H71C (Cdk2(H71C) (C177A)): 0.006834
- Rate enhancement, Cdk2 F80C (Cdk2(C177A, F80C)): 1.015
- Rate constant with Cdk2 F80C (Cdk2(C177A, F80C)): 0.01786
- Rate enhancement, Cdk2 S276C (Cdk2(S276C) (C177A)): 1.35
- Rate constant with Cdk2 S276C (Cdk2(S276C) (C177A)): 0.02375
- Rate enhancement, Cdk2 N272 (Cdk2(N272C) (C177A)): 0.3397
- Rate constant with Cdk2 N272C (Cdk2(N272C) (C177A)): 0.005976
